Data on 4 compounds can be found in ChEMBL document CHEMBL1201862, “PubChem BioAssay data set” (2004).

The source made the active and inactive calls.

One may read the EC50 as the concentration that produces a half-maximal response. One may read the Ki as the equilibrium dissociation constant of an inhibitor or competing ligand from its target.

Format in all cases: functional
The target in experiment [1] is T1, High affinity choline transporter 1 (Homo sapiens, UniProt Q9GZV3).
T1 sequence (Q9GZV3 whole entry): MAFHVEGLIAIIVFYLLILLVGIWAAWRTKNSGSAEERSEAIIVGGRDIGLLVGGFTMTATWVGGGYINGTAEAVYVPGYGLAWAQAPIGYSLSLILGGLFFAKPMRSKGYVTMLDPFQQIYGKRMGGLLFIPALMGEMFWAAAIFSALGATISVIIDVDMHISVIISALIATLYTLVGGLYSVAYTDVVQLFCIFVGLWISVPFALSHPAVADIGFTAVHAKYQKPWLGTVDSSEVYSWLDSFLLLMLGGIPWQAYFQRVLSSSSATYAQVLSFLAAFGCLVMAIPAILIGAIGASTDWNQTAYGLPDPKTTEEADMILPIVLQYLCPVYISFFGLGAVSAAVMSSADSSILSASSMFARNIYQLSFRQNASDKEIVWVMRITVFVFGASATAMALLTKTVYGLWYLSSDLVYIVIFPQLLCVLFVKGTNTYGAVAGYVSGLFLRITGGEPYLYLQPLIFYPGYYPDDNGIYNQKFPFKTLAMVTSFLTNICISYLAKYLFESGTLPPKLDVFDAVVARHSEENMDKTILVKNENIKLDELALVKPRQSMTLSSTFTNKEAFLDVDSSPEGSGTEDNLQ
The experiment in a line: CHT activators, dose response, cell-based, 10-point CRC, membrane potential dye (AID 602376).

Experiment [2] addresses DNA dC->dU-editing enzyme APOBEC-3G (Homo sapiens, UniProt Q9HC16). Kind of experiment: APOBEC3G deaminase inhibitors, SAR follow-up, biochemical, fluorescence, single-stranded DNA substrate (AID 602136). As to conditions: read-out: IC50_Mean.
The target in experiment [3] is DNA dC->dU-editing enzyme APOBEC-3A (Homo sapiens, UniProt P31941). Kind of experiment: SAR analysis of small molecule inhibitors of APOBEC3A DNA Deaminase via a fluorescence-based single-stranded DNA deaminase assay. The following applies: read-out: IC50_Mean.
For experiment [4], the target named is Dual specificity mitogen-activated protein kinase kinase 1 (Homo sapiens, UniProt Q02750). Kind of experiment: Navigating the Kinome. Panel member name: MAP2K1.
Experiment [5] concerns the target ALK tyrosine kinase receptor (Homo sapiens, UniProt Q9UM73).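 Also: ALK tested as one member of a kinase panel screen.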
For experiment [6], the target named is Tyrosine-protein kinase receptor TYRO3 (Homo sapiens, UniProt Q06418).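 Also: TYRO3 value obtained as one member of a kinome-wide profiling panel.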
For experiment [7], the target named is Mitogen-activated protein kinase 8 (Homo sapiens, UniProt P45983).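 Also: value comes from one member of a kinome-wide kinase profiling panel.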
For experiment [8], the target named is Serine/threonine-protein kinase pim-1 (Homo sapiens, UniProt P11309).
The target of experiment [9] is Tyrosine-protein kinase BTK (Homo sapiens, UniProt Q06187).
Experiment [10] deals with Fibroblast growth factor receptor 1 (Homo sapiens, UniProt P11362).
Experiment [11] deals with Serine/threonine-protein kinase TAO1 (Homo sapiens, UniProt Q7L7X3).
Experiment [12] deals with Glycogen synthase kinase-3 alpha (Homo sapiens, UniProt P49840).
Experiment [13] concerns the target Mitogen-activated protein kinase kinase kinase kinase 2 (Homo sapiens, UniProt Q12851).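 Also: measured as one member of a kinome-wide kinase panel, with MAP4K2 as the panel entry.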
The target of experiment [14] is Activated CDC42 kinase 1 (Homo sapiens, UniProt Q07912). The experiment in a line: Navigating the Kinome. Panel member name: ACK1.
Experiment [15] addresses Platelet-derived growth factor receptor beta (Homo sapiens, UniProt P09619).
Experiment [16] deals with Serine/threonine-protein kinase Chk1 (Homo sapiens, UniProt O14757).
The target of experiment [17] is Vascular endothelial growth factor receptor 2 (Homo sapiens, UniProt P35968).
Experiment [18] deals with G protein-coupled receptor kinase 5 (Homo sapiens, UniProt P34947). The experiment in a line: Navigating the Kinome. Panel member name: GPRK5.
The target of experiment [19] is Leucine-rich repeat serine/threonine-protein kinase 2 (Homo sapiens, UniProt Q5S007).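 Also: value from a broad kinome-wide panel profiling study in which LRRK2 was one of the kinases tested.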
The target of experiment [20] is Cyclin-dependent kinase 19 (Homo sapiens, UniProt Q9BWU1). The experiment in a line: Navigating the Kinome. Panel member name: CDC2L6.
Experiment [21] deals with Tyrosine-protein kinase Fyn (Homo sapiens, UniProt P06241).
The target in experiment [22] is Serine/threonine-protein kinase Nek2 (Homo sapiens, UniProt P51955).
The target in experiment [23] is Cyclin-dependent kinase 8 (Homo sapiens, UniProt P49336). Kind of experiment: Navigating the Kinome. Panel member name: CDK8.
In experiment [24] the target is Glycogen synthase kinase-3 beta (Homo sapiens, UniProt P49841).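 Also: value comes from a broad kinome profiling panel, with GSK3B as the panel member.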
Experiment [25] addresses Dual specificity mitogen-activated protein kinase kinase 2 (Homo sapiens, UniProt P36507). The experiment in a line: Navigating the Kinome. Panel member name: MAP2K2.
Experiment [26] deals with Inhibitor of nuclear factor kappa-B kinase subunit epsilon (Homo sapiens, UniProt Q14164). Kind of experiment: Navigating the Kinome. Panel member name: IKBKE.
Experiment [27] concerns the target T1, High affinity choline transporter 1. Kind of experiment: CHT inhibitors, dose response, cell-based, 5-point CRC, membrane potential dye (AID 504840).
For experiment [28] the target is unchanged. Kind of experiment: CHT inhibitors, dose response, cell-based, 10-point CRC, membrane potential dye (AID 588401).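 Also: membrane potential dye fluorescence of choline-evoked depolarization via CHT.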

Chain of Mitogen-activated protein kinase kinase kinase kinase 2 (Q12851 whole entry): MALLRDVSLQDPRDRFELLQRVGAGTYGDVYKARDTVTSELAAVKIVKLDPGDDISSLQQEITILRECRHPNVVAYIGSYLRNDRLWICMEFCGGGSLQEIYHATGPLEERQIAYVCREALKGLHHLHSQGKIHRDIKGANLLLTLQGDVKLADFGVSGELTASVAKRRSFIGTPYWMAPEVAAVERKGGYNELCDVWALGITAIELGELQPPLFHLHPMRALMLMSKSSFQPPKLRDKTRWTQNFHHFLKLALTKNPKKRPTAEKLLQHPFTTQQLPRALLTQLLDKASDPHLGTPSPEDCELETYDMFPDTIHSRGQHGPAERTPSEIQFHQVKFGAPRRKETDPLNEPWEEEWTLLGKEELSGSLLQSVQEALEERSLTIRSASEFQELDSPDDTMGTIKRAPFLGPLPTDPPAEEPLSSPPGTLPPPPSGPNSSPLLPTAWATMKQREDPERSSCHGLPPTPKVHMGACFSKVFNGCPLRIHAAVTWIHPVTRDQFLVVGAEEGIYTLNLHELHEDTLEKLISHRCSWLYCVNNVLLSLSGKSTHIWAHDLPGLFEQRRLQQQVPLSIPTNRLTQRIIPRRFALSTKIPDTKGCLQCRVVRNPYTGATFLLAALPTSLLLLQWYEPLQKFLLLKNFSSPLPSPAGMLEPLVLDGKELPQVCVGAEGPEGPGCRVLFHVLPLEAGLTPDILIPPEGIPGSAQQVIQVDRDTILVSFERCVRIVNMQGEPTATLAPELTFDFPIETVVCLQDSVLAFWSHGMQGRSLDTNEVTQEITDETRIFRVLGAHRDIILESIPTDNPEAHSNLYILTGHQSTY
Chain of Mitogen-activated protein kinase 8 (P45983 whole entry): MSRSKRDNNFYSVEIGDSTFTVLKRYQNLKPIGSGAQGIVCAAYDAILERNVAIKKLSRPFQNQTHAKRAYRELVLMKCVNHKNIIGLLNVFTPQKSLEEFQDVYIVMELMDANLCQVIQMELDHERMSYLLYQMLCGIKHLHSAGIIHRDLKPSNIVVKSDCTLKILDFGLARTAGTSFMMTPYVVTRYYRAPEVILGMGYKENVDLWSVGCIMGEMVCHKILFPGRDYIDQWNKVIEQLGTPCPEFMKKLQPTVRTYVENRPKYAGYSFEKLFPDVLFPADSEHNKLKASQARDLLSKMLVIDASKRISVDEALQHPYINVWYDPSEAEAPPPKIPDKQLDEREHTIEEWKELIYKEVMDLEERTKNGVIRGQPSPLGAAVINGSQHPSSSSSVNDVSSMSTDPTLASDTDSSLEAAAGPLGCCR
Chain of Tyrosine-protein kinase receptor TYRO3 (Q06418 whole entry): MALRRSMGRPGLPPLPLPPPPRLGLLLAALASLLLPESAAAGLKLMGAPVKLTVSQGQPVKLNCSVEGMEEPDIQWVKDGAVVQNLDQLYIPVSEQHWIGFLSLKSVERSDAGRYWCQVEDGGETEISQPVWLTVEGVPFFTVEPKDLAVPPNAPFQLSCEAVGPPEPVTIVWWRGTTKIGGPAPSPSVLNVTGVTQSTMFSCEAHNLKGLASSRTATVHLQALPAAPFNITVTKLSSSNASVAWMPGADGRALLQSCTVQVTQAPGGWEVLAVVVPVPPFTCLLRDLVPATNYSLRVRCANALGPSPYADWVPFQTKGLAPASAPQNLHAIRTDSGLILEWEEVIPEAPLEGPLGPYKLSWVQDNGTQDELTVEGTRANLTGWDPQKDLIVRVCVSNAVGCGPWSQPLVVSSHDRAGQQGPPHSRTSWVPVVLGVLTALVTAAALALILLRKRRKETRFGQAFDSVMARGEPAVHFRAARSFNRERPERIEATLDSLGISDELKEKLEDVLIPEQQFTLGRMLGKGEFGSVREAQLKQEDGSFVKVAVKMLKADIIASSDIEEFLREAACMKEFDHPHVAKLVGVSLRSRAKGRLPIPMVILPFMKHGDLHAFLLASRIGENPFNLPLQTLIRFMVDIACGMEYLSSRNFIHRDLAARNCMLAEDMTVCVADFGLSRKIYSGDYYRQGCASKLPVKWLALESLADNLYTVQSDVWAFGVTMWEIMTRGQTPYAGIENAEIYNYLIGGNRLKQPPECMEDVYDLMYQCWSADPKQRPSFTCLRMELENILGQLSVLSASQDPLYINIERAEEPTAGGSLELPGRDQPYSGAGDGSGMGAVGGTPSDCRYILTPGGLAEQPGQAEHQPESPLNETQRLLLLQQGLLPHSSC
Chain of Glycogen synthase kinase-3 alpha (P49840 whole entry): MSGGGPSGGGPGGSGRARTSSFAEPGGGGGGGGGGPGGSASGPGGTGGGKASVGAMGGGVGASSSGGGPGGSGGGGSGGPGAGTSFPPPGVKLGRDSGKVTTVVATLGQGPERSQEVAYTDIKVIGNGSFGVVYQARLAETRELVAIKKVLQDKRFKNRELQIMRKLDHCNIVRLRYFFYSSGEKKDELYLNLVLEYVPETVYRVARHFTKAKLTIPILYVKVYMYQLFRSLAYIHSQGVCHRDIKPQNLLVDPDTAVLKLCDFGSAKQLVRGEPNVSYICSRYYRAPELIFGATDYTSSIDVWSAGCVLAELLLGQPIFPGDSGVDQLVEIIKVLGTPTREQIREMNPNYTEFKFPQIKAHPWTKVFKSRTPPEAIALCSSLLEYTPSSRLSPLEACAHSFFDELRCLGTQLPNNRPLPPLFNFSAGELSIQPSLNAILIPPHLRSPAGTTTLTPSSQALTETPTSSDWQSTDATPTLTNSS
Chain of Fibroblast growth factor receptor 1 (P11362 whole entry): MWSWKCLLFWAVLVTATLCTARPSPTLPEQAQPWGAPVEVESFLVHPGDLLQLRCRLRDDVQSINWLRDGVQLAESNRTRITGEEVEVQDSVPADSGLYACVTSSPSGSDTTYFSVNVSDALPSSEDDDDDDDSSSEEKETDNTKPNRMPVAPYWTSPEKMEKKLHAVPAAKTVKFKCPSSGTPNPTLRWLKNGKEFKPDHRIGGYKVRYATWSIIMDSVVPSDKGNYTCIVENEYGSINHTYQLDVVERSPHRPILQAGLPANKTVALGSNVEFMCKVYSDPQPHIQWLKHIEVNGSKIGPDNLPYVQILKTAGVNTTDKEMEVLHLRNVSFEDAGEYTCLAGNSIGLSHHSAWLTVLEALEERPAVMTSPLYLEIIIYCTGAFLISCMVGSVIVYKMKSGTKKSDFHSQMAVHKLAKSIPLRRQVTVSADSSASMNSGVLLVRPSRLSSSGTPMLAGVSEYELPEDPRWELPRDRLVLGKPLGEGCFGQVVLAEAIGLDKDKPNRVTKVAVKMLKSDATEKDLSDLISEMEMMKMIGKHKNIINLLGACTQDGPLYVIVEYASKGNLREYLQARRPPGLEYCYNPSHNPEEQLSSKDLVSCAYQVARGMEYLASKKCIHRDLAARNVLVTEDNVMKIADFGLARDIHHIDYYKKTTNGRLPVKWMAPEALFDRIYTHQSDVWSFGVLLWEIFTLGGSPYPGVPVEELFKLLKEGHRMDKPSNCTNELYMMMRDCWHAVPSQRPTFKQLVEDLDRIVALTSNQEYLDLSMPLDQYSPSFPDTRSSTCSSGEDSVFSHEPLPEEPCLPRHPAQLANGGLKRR
Chain of Tyrosine-protein kinase Fyn (P06241 whole entry): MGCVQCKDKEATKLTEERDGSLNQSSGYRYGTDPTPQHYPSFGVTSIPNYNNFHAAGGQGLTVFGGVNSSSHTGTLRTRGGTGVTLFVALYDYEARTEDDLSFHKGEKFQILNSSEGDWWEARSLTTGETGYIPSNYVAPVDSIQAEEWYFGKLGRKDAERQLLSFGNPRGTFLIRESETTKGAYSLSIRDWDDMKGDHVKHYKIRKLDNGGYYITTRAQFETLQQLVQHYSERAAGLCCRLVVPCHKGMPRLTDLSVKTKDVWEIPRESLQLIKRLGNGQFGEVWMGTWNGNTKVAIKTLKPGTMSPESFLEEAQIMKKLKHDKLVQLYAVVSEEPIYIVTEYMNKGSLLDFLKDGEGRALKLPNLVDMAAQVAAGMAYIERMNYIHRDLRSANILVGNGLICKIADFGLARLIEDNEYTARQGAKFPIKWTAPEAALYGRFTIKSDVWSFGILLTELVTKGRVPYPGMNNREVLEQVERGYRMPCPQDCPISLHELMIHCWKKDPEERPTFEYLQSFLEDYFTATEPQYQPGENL
Chain of DNA dC->dU-editing enzyme APOBEC-3G (Q9HC16 whole entry): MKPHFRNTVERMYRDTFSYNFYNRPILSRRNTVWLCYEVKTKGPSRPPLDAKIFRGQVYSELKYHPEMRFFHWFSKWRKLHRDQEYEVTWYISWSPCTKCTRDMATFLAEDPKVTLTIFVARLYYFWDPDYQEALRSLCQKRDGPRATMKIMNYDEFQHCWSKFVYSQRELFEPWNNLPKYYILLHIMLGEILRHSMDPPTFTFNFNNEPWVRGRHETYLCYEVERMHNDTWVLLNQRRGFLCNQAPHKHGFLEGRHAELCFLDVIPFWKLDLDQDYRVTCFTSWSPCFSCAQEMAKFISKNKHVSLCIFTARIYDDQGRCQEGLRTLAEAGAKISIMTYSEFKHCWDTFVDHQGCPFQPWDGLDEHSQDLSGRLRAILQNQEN
Chain of Serine/threonine-protein kinase Nek2 (P51955 whole entry): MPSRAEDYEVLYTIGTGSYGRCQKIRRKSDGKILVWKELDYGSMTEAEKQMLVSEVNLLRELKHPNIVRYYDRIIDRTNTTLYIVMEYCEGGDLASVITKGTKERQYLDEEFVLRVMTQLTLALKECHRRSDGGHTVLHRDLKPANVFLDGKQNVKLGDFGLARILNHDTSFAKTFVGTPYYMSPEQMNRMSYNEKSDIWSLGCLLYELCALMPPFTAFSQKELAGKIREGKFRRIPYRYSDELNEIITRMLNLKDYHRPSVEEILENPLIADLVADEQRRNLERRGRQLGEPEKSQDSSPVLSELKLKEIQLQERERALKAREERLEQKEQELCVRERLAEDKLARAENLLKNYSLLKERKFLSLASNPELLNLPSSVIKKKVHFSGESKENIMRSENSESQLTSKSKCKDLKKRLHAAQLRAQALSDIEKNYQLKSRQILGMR
Chain of DNA dC->dU-editing enzyme APOBEC-3A (P31941 whole entry): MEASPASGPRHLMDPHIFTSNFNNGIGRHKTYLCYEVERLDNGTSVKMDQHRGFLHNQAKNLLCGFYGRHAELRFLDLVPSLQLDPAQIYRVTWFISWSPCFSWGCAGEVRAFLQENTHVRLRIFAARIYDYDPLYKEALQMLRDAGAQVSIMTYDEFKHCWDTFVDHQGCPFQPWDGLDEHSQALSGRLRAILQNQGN

Regarding `COc1ccc(-c2nnc(SC(C)C(=O)NCc3ccc4c(c3)OCO4)n2Cc2ccco2)cc1` (stereo not drawn), the EC50 in [1] is 24.3 µM (active).
`COc1ccc(-c2nnc(SCC(=O)c3cccc(Br)c3)[nH]2)cc1`: the IC50 in experiment [2] and in [3] was > 99 µM (inactive) each time.
In the case of `O=c1[nH]n2ccccc2c1Br`, the Ki in experiment [4] was 2.51 µM (active); in experiment [5], 5.01 µM (active); in experiment [6], 2.51 µM (active); in experiment [7] it was 5.01 µM (active); in [8] it was 3.98 µM (active); in experiment [9], 5.01 µM (active). Also, the Ki is 3.98 µM (active) in experiment [10]; > 6.31 µM (inactive) in experiment [11]; 3.98 µM (active) in [12]; 2.51 µM (active) in experiment [13]; 3.98 µM (active) in [14]; 2 µM (active) in experiment [15]. In addition, the Ki in experiment [16] was 0.631 µM (active); in [17], 2 µM (active); in [18], 3.98 µM (active); in experiment [19], 2.51 µM (active); in experiment [20], 3.16 µM (active); in experiment [21] it was 5.01 µM (active). In addition, the Ki in [22] was 3.16 µM (active); in experiment [23], 3.98 µM (active); in [24], 3.16 µM (active); in experiment [25], 1.58 µM (active); in experiment [26], 3.16 µM (active).
In the case of `Cc1cccc(NC(=O)c2[nH]nc([N+](=O)[O-])c2Br)c1C`, the IC50 in experiment [27] is 4.1 µM (active); in experiment [28] it was 1.41 µM (active).
